According to ChEMBL document CHEMBL1781873, “Synthesis and antibacterial property of pyrrolopyrano quinolinones and pyrroloquinolines” (2011):
Converted amounts (≈) assume the structure as drawn. The source made the active and inactive calls. No cut-off for these calls is given here.

Tests used:
[1] = system: Escherichia coli; experiment: Inhibition of Escherichia coli DNA gyrase assessed as inhibition of DNA supercoiling activity using pBR322 DNA as substrate at […] after 3 hrs by agarose gel electrophoresis
[2] = system: Salmonella typhi; experiment: Antibacterial activity against Salmonella typhi at 5 ug after 24 hrs by disc diffusion assay; type: functional, Salmonella enterica subsp. enterica serovar Typhi; conditions: Salmonella enterica, read-out: IZ
[3] = system: Escherichia coli; experiment: Inhibition of DNA gyrase mRNA expression in Escherichia coli measured up to 24 hrs by RT-PCR; type: functional, organism-based
[4] = system: Escherichia coli; experiment: Antibacterial activity against Escherichia coli at 5 ug after 24 hrs by disc diffusion assay; type: functional; conditions: read-out: IZ
[5] = system: Klebsiella pneumoniae; experiment: Antibacterial activity against Klebsiella pneumoniae at 5 ug after 24 hrs by disc diffusion assay; type: functional; conditions: read-out: IZ
[6] = system: Bacillus subtilis; experiment: Antibacterial activity against Bacillus subtilis after 18 to 20 hrs by broth micro dilution assay; type: functional
[7] = system: Pseudomonas aeruginosa; experiment: Antibacterial activity against Pseudomonas aeruginosa at 10 ug after 24 hrs by disc diffusion assay; type: functional; conditions: read-out: IZ
[8] = system: Staphylococcus aureus; experiment: Antibacterial activity against Staphylococcus aureus at 25 ug after 24 hrs by disc diffusion assay; type: functional; conditions: read-out: IZ
[9] = system: Escherichia coli; experiment: Antibacterial activity against Escherichia coli at 10 ug after 24 hrs by disc diffusion assay; type: functional; conditions: read-out: IZ
[10] = system: Staphylococcus aureus; experiment: Antibacterial activity against Staphylococcus aureus at 5 ug after 24 hrs by disc diffusion assay; type: functional; conditions: read-out: IZ
[11] = system: Pseudomonas aeruginosa; experiment: Antibacterial activity against Pseudomonas aeruginosa after 18 to 20 hrs by broth micro dilution assay; type: functional
[12] = system: Escherichia coli; experiment: Antibacterial activity against Escherichia coli at 15 ug after 24 hrs by disc diffusion assay; type: functional; conditions: read-out: IZ
[13] = system: Salmonella typhi; experiment: Antibacterial activity against Salmonella typhi at 20 ug after 24 hrs by disc diffusion assay; type: functional, Salmonella enterica subsp. enterica serovar Typhi; conditions: Salmonella enterica, read-out: IZ
[14] = system: Staphylococcus aureus; experiment: Antibacterial activity against Staphylococcus aureus at 20 ug after 24 hrs by disc diffusion assay; type: functional; conditions: read-out: IZ
[15] = system: Klebsiella pneumoniae; experiment: Antibacterial activity against Klebsiella pneumoniae at 20 ug after 24 hrs by disc diffusion assay; type: functional; conditions: read-out: IZ
[16] = system: Pseudomonas aeruginosa; experiment: Antibacterial activity against Pseudomonas aeruginosa at 20 ug after 24 hrs by disc diffusion assay; type: functional; conditions: read-out: IZ
[17] = system: Salmonella typhi; experiment: Antibacterial activity against Salmonella typhi at 10 ug after 24 hrs by disc diffusion assay; type: functional, Salmonella enterica subsp. enterica serovar Typhi; conditions: Salmonella enterica, read-out: IZ
[18] = system: Pseudomonas aeruginosa; experiment: Antibacterial activity against Pseudomonas aeruginosa at 5 ug after 24 hrs by disc diffusion assay; type: functional; conditions: read-out: IZ
[19] = system: Salmonella typhi; experiment: Antibacterial activity against Salmonella typhi after 18 to 20 hrs by broth micro dilution assay; type: functional, Salmonella enterica subsp. enterica serovar Typhi; conditions: Salmonella enterica
[20] = system: Escherichia coli; experiment: Antibacterial activity against Escherichia coli after 18 to 20 hrs by broth micro dilution assay; type: functional
[21] = system: Escherichia coli; experiment: Inhibition of Escherichia coli DNA gyrase -mediated DNA relaxation using pBR322 DNA as substrate at […] after 1 hrs by agarose gel electrophoresis
[22] = system: Salmonella typhi; experiment: Antibacterial activity against Salmonella typhi at 15 ug after 24 hrs by disc diffusion assay; type: functional, Salmonella enterica subsp. enterica serovar Typhi; conditions: Salmonella enterica, read-out: IZ
[23] = system: Bacillus subtilis; experiment: Antibacterial activity against Bacillus subtilis at 15 ug after 24 hrs by disc diffusion assay; type: functional; conditions: read-out: IZ
[24] = system: Bacillus subtilis; experiment: Antibacterial activity against Bacillus subtilis at 25 ug after 24 hrs by disc diffusion assay; type: functional; conditions: read-out: IZ
[25] = system: Klebsiella pneumoniae; experiment: Antibacterial activity against Klebsiella pneumoniae after 18 to 20 hrs by broth micro dilution assay; type: functional
[26] = system: Pseudomonas aeruginosa; experiment: Antibacterial activity against Pseudomonas aeruginosa at 15 ug after 24 hrs by disc diffusion assay; type: functional; conditions: read-out: IZ
[27] = system: Escherichia coli; experiment: Antibacterial activity against Escherichia coli at 25 ug after 24 hrs by disc diffusion assay; type: functional; conditions: read-out: IZ
[28] = system: Staphylococcus aureus; experiment: Antibacterial activity against Staphylococcus aureus after 18 to 20 hrs by broth micro dilution assay; type: functional
[29] = system: Klebsiella pneumoniae; experiment: Antibacterial activity against Klebsiella pneumoniae at 25 ug after 24 hrs by disc diffusion assay; type: functional; conditions: read-out: IZ
[30] = system: Escherichia coli; experiment: Antibacterial activity against Escherichia coli at 20 ug after 24 hrs by disc diffusion assay; type: functional; conditions: read-out: IZ
[31] = system: Pseudomonas aeruginosa; experiment: Antibacterial activity against Pseudomonas aeruginosa at 25 ug after 24 hrs by disc diffusion assay; type: functional; conditions: read-out: IZ
[32] = system: Klebsiella pneumoniae; experiment: Antibacterial activity against Klebsiella pneumoniae at 10 ug after 24 hrs by disc diffusion assay; type: functional; conditions: read-out: IZ
[33] = system: Staphylococcus aureus; experiment: Antibacterial activity against Staphylococcus aureus at 10 ug after 24 hrs by disc diffusion assay; type: functional; conditions: read-out: IZ
[34] = system: Bacillus subtilis; experiment: Antibacterial activity against Bacillus subtilis at 20 ug after 24 hrs by disc diffusion assay; type: functional; conditions: read-out: IZ
[35] = system: Staphylococcus aureus; experiment: Antibacterial activity against Staphylococcus aureus at 15 ug after 24 hrs by disc diffusion assay; type: functional; conditions: read-out: IZ
[36] = system: Klebsiella pneumoniae; experiment: Antibacterial activity against Klebsiella pneumoniae at 15 ug after 24 hrs by disc diffusion assay; type: functional; conditions: read-out: IZ
[37] = system: Salmonella typhi; experiment: Antibacterial activity against Salmonella typhi at 25 ug after 24 hrs by disc diffusion assay; type: functional, Salmonella enterica subsp. enterica serovar Typhi; conditions: Salmonella enterica, read-out: IZ

CCC1[C@@H]2Nc3ccccc3C(c3ccccc3)[C@H]2CN1OS(=O)(=O)c1ccc(C)cc1 (stereo partly drawn)
DNA gyrase inhibition (active/inactive) [1]: Active | zone of inhibition at 5 µg/disc [2]: 10 mm | inhibition of gyrase mRNA expression (active/not active) [3]: inactive | zone of inhibition at 5 µg/disc [4]: 10 mm | zone of inhibition at 5 µg/disc [5]: 20 mm | MIC50 [6]: 64 µg/mL (≈ 143 µM) | MIC90 [6]: 128 µg/mL (≈ 285 µM) | zone of inhibition at 10 µg/disc [7]: 14 mm | zone of inhibition at 25 µg/disc [8]: 36 mm | zone of inhibition at 10 µg/disc [9]: 16 mm | zone of inhibition at 5 µg/disc [10]: 20 mm | MIC50 [11]: 64 µg/mL (≈ 143 µM) | MIC90 [11]: 128 µg/mL (≈ 285 µM) | zone of inhibition at 15 µg/disc [12]: 18 mm | zone of inhibition at 20 µg/disc [13]: 22 mm | zone of inhibition at 20 µg/disc [14]: 30 mm | zone of inhibition at 20 µg/disc [15]: 34 mm | zone of inhibition at 20 µg/disc [16]: 20 mm | zone of inhibition at 10 µg/disc [17]: 16 mm | zone of inhibition at 5 µg/disc [18]: 10 mm | MIC50 [19]: 64 µg/mL (≈ 143 µM) | MIC90 [19]: 128 µg/mL (≈ 285 µM) | MIC50 [20]: 64 µg/mL (≈ 143 µM) | MIC90 [20]: 64 µg/mL (≈ 143 µM) | inhibition [21]: Active | zone of inhibition at 15 µg/disc [22]: 18 mm | zone of inhibition at 15 µg/disc [23]: 6 mm | zone of inhibition at 25 µg/disc [24]: 9 mm | MIC50 [25]: 64 µg/mL (≈ 143 µM) | MIC90 [25]: 64 µg/mL (≈ 143 µM) | zone of inhibition at 15 µg/disc [26]: 16 mm | zone of inhibition at 25 µg/disc [27]: 23 mm | MIC50 [28]: 64 µg/mL (≈ 143 µM) | MIC90 [28]: 128 µg/mL (≈ 285 µM) | zone of inhibition at 25 µg/disc [29]: 36 mm | zone of inhibition at 20 µg/disc [30]: 20 mm | zone of inhibition at 25 µg/disc [31]: 23 mm | zone of inhibition at 10 µg/disc [32]: 26 mm | zone of inhibition at 10 µg/disc [33]: 24 mm | zone of inhibition at 20 µg/disc [34]: 7 mm | zone of inhibition at 15 µg/disc [35]: 26 mm | zone of inhibition at 15 µg/disc [36]: 30 mm | zone of inhibition at 25 µg/disc [37]: 24 mm
